Changes are numbered by the printed parent chain.
Columns and labels:
Test in all cases: competition with [3H]-mesulergine, HEK membranes
Type in all cases: binding
[1] = molecular target: T1, human 5-HT2C-INI (WT) receptor (Homo sapiens, UniProt P28335, S138A)
T1 sequence (P28335 33-458 S138A): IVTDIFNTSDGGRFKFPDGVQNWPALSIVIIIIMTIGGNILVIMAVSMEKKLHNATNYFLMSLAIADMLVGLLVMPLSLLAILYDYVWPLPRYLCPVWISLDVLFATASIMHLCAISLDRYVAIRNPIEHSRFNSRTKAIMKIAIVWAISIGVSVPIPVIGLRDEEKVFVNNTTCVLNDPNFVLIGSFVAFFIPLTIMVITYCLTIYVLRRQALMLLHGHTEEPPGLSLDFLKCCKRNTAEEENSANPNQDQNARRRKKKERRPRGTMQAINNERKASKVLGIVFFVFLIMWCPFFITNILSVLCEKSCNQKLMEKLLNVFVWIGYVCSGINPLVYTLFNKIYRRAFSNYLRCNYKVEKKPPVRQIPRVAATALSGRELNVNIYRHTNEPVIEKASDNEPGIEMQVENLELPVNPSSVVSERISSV

[2] = molecular target: T2, human 5-HT2C-INI (WT) receptor (Homo sapiens, UniProt P28335)
T2 sequence (P28335 33-458): T1 sequence (P28335 33-458 S138A) with A106S

[3] = molecular target: T3, human 5-HT2C-INI (WT) receptor (Homo sapiens, UniProt P28335, Y358A)
T3 sequence (P28335 33-458 Y358A): T1 sequence (P28335 33-458 S138A) with A106S, Y326A

NCCc1c[nH]c2ccccc12 [Tryptamine]
Ki [1]: 1510 nM
Ki [2]: 57.1 nM
Ki [3]: 298 nM

NC1Cc2ccccc2C(c2ccccc2)C1 (racemic) [NH2-PAT]
Ki [1]: 9040 nM
Ki [2]: 1550 nM
Ki [3]: 1350 nM

From article PMC3224194 (European journal of pharmacology, 2011)
